# Measurements as given in patent publication US6906175B2, “Production of adenine nucleotide translocator (ANT), novel ANT ligands and screening assays therefor” (priority 1998, dated 2005).
# How the values were obtained:
# [1] = molecular target: T1, His-tagged huANT3 (Homo sapiens, UniProt P12236); experiment: 125I-compound 24 competition binding to recombinant His-tagged huANT3 immobilized on Ni beads; parameters: made in house; host or cells: baculovirus-infected Trichoplusia ni cells; mitochondria solubilized and captured on Ni-agarose beads (Qiagen); conditions: His-tagged huANT3 on Ni-agarose beads, 1 hour at 4° C.; FIG. 19
# T1 sequence (P12236 1-298): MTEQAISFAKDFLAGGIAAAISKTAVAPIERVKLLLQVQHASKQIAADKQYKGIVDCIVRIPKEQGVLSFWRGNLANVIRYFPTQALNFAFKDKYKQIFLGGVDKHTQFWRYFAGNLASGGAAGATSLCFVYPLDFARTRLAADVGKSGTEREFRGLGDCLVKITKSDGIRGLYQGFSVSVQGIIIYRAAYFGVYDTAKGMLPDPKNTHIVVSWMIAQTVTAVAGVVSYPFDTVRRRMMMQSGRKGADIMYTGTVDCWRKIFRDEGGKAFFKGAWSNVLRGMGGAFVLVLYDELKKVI
# Procedure: Competitive binding assays were also performed using recombinant His-tagged huANT3 (see Example 3) immobilized on Ni beads (FIG. 19) instead of mitochondria. To prepare the bead-immobilized huANT3, mitochondria from T. ni cells infected with a baculovirus expressing huANT3 (see Example 3) were solubilized with 0.5% O-glucopyranoside in the presence of 0.5 nM ^125I-compound 24 Ni-agarose beads (Qiagen, Hilden, Germany), and various concentrations of ATR or BKA as unlabeled competitors. After 1 hour at 4° C., the beads were washed and radioactivity that remained associated with the beads was counted.
# [2] = molecular target: T2, bovine mitochondria (ANT) (Bos taurus, UniProt P02722); experiment: 125I-compound 24 competition binding (Tube Assay), beef heart mitochondria
# T2 construct: from tissue; host or cells: bovine heart mitochondria
# T2 sequence (P02722 2-298 limits assumed): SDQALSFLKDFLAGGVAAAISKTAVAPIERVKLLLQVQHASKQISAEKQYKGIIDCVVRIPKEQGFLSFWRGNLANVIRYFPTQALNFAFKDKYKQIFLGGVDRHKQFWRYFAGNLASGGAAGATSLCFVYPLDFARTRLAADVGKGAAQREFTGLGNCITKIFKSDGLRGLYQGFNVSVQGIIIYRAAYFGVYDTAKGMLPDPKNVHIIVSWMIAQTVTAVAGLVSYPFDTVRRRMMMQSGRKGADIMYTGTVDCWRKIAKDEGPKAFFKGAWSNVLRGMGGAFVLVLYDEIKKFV
# Procedure: Bovine mitochondria were prepared as follows: Essentially all of the fat and cholesterol […] was removed from two bovine hearts which were then cut into 1-inch cubes. The cubes were ground in a meat grinder using the fine setting. Three hundred (300) […] portions of the ground heart were weighed out and, to each was added 400 ml of Isolation Buffer (IB; 250 mM sucrose, 1 mM sodium succinate, 0.2 mM K^+EDTA, 10 mM Tris-base, pH 7.8). (All buffers were filter sterilized, and column buffers were degassed, and, unless otherwise noted, all steps were carried out at 0 to 4° C. on ice or in pre-cooled rotors and centrifuges.) The preparations were mixed in a blender two times for 15 seconds on high setting and, in between and after blends, the pH was adjusted to 7.8 with 2M Tris-base. The homogenate was centrifuged for 20 minutes at 1,200×g, and the supernatant was poured through two layers of cheese cloth and adjusted to pH 7.8 with 2M Tris-base. The supernatant was then centrifuged for 30 minutes at […]. The supernatant was decanted, and the buff-colored outer pellet was dislodged with about 10 ml of IB and discarded. The brown inner pellet (heavy mitochondria) was resuspended in IB (about 10 ml per pellet). The pellets were homogenized in a glass-teflon homogenizer (2 passes at high drill speed). Samples were combined and centrifuged for 30 minutes at 11,000×g. The supernatant was decanted, and the pellets were resuspended in 60 ml of IB per 900 gm of ground heart. This centrifugation step was repeated and the pellets were finally resuspended in IB (60 ml per 900 gm of ground heart). One kilogram of beef heart typically yields about one (1) gram of mitochondria
# The mitochondrial preparations were divided into aliquots (typically, 50μl for T. ni mitochondria or 20 μl for bovine mitochondria) and then either used directly in assays or flash frozen and stored at −80° C. The total protein content in the mitochondrial preparations was determined using the enhanced protocol (30 minutes at 60° C.; see http://www.ruf.rice.edu/˜bioslabs/methods/protein/BCA.html) of the bicinchoninic acid (BCA) assay (available in kit form from Pierce, Rockford, Ill.).
# In the “Tube Assay,” mitochondria (from about 1 to 10 μg of total protein) were resuspended in 100 μl of Tris-KCl buffer with 0.1% BSA, pH 7.4. ^125I-labeled compound 24 (Example 11) was added to a final concentration of 0.5 nM. When used, competitors were added at these concentration ranges: unlabeled atractyloside or compound 24 final concentration from 5 nM to 10 μM; unlabeled ADP (a lower affinity competitor) was added at a final concentration of 500 nM to 1 mM.
# The reaction mixes were incubated on ice for 60 minutes and then pelleted by centrifugation (approximately 16,000×g) for 11 minutes at 4° C.
# Unbound ^125I-compound 24 was removed by aspiration. The pellets were contact-washed with Tris-KCl buffer, pH 7.4, and recentrifuged. The resultant pellets were aspirated and the radioactivity (dpm) in each was determined by gamma counting.
Structure (SMILES),competitive inhibition of 125I-compound 24 binding (in words) [1],"competitive inhibition of 125I-compound 24 binding (in words) ([2]; FIGS. 11, 13, 16)","IC50 ([2]; 0.5 nM 125I-compound 24, FIG. 18, read-out: IC50, competitive inhibition of 125I-compound 24 binding) [µM]"
"CO[C@H](C/C=C\C=C\CC/C=C/C[C@H](C)/C=C/C(=C\C(=O)O)CC(=O)O)/C(C)=C\C=C(/C)C(=O)O [BKA, bongkrekic acid]",effectively compete with compound 24,"effectively displaced labeled compound 24, albeit with a slightly lower affinity than unlabeled compound 24",
"CC(C)CC(=O)OC1C(OC2CC(C(=O)O)C3CCC45CC(CCC4C3(C)C2)C(C)C5O)OC(CO)C(OS(=O)(=O)O)C1OS(=O)(=O)O (stereo not drawn) [compound 5, Dihydroatractyloside]",,,~3.3
